Source: patent publication US8562949B2, “Radiolabeled dihydrotetrabenazine derivatives and their use as imaging agents” (The Trustees of the University of Pennsylvania, priority 2006, dated 2013)

Experiments:
VMAT2 = VMAT2 (Rattus norvegicus, UniProt Q01827); assay: Competition for [3H](±)TBZ binding in rat striatal homogenates; set-up: The basal forebrain regions of rat and mouse brains were then dissected; from tissue; host or cells: rat striatum / basal forebrain homogenate; settings: Kd […] used for calculation
Sequence of VMAT2 (Q01827 whole entry): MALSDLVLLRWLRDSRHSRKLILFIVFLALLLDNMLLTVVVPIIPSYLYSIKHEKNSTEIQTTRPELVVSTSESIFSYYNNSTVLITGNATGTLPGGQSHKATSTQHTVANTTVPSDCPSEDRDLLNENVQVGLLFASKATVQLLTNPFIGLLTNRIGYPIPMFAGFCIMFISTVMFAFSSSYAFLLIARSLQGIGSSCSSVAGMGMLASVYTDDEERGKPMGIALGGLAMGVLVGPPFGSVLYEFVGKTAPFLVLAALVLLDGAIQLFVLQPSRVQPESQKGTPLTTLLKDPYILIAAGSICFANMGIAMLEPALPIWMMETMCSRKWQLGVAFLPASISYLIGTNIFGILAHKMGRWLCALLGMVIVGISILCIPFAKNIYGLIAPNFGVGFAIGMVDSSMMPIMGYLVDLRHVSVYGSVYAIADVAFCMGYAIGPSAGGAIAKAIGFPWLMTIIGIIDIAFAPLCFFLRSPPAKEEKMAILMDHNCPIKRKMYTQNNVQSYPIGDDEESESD

DAT sites = DAT sites (Mus musculus, UniProt Q61327); assay: Dual isotope experiment in lesioned mice, [125I]IPT
Sequence of DAT sites (Q61327 whole entry): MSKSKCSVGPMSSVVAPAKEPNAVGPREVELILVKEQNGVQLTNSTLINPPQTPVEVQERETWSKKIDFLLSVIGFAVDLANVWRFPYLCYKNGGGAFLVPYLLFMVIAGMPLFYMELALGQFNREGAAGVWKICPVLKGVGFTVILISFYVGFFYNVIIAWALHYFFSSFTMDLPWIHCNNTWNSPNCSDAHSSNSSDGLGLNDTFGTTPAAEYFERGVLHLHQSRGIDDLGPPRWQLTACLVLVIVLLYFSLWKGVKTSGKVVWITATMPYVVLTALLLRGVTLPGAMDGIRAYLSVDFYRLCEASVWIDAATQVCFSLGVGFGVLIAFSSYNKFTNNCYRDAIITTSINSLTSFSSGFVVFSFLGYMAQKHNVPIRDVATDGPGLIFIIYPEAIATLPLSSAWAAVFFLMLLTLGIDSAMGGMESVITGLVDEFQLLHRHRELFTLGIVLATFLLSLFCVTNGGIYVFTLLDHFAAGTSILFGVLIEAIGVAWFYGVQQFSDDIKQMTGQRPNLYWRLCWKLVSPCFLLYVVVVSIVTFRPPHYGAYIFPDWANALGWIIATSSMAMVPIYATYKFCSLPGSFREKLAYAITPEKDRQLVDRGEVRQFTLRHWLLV
From the text: Thirty minutes after injection, the mice were sacrificed and the brains removed. Different regions corresponding to striatum (ST), hippocampus (HP), cerebellum (CB), and cortex (CX) were dissected. In particular, the lesioned region was separated from non-lesioned area of the striatal tissues. Samples were counted in a gamma counter with two different window settings for F-18 and I-125, respectively, to obtain the regional distribution of each tracer.
To measure the degree of lesion, a dual-isotope experiment comparing the striatal uptakes in lesioned vs. unlesioned sites using [^18F]FP-DTBZ was performed. A marker [^125I]IPT (selective for dopamine transporters) was injected simultaneously.

[1] = lesioned Mouse 1, 30 min post-injection
[2] = lesioned Mouse 2, 30 min post-injection
[3] = lesioned Mouse 3, 30 min post-injection
[4] = lesioned Mouse 4, 30 min post-injection

COc1cc2c(cc1O)CCN1CC(CC(C)C)C(O)CC21 (racemic) [3,9-desmethyl-(±)DTBZ, (±)-9-O-Desmethyldihydrotetrabenazine, reference compound]
Ki (VMAT2; [3H](±)TBZ 1.0-1.5 nM): 11.8 ± 1.7 nM

COC(=O)C1C(c2ccc(Cl)cc2)CC2CCC1N2CC=CI (stereo not drawn) [[^125I]IPT, N-(3′-iodopropen-2′-yl)-2-beta-carbomethoxy-3-beta-(4-chlorophenyl)tropane]
% StrL/StrN (DAT sites; [1]): 32.6%
Regional brain distribution Cerebellum (CB) (DAT sites; [1]): 0.96 % dose/g
Regional brain distribution Cortex (DAT sites; [1]): 0.69 % dose/g
Regional brain distribution Hippocampus (DAT sites; [1]): 0.87 % dose/g
Regional brain distribution Hypothalamus (DAT sites; [1]): 1.28 % dose/g
Regional brain distribution Remainder (DAT sites; [1]): 1.34 % dose/g
ratio vs. CB, Cerebellum (CB) (DAT sites; [1]): 1.00
ratio vs. CB, Cortex (DAT sites; [1]): 0.72
ratio vs. CB, Hippocampus (DAT sites; [1]): 0.91
ratio vs. CB, Hypothalamus (DAT sites; [1]): 1.34
ratio vs. CB, Remainder (DAT sites; [1]): 1.40
ratio vs. CB, Stratum N (DAT sites; [1]): 9.63
ratio vs. CB, Striatum L (DAT sites; [1]): 3.14
% StrL/StrN (DAT sites; [2]): 55.7%
Regional brain distribution Cerebellum (CB) (DAT sites; [2]): 0.77 % dose/g
Regional brain distribution Cortex (DAT sites; [2]): 0.62 % dose/g
Regional brain distribution Hippocampus (DAT sites; [2]): 0.70 % dose/g
Regional brain distribution Hypothalamus (DAT sites; [2]): 1.22 % dose/g
Regional brain distribution Remainder (DAT sites; [2]): 1.16 % dose/g
ratio vs. CB, Cerebellum (CB) (DAT sites; [2]): 1.00
ratio vs. CB, Cortex (DAT sites; [2]): 0.80
ratio vs. CB, Hippocampus (DAT sites; [2]): 0.90
ratio vs. CB, Hypothalamus (DAT sites; [2]): 1.58
ratio vs. CB, Remainder (DAT sites; [2]): 1.49
ratio vs. CB, Stratum N (DAT sites; [2]): 8.17
ratio vs. CB, Striatum L (DAT sites; [2]): 4.55
% StrL/StrN (DAT sites; [3]): 52.3%
Regional brain distribution Cerebellum (CB) (DAT sites; [3]): 0.81 % dose/g
Regional brain distribution Cortex (DAT sites; [3]): 0.66 % dose/g
Regional brain distribution Hippocampus (DAT sites; [3]): 0.81 % dose/g
Regional brain distribution Hypothalamus (DAT sites; [3]): 1.42 % dose/g
Regional brain distribution Remainder (DAT sites; [3]): 1.57 % dose/g
ratio vs. CB, Cerebellum (CB) (DAT sites; [3]): 1.00
ratio vs. CB, Cortex (DAT sites; [3]): 0.81
ratio vs. CB, Hippocampus (DAT sites; [3]): 1.00
ratio vs. CB, Hypothalamus (DAT sites; [3]): 1.76
ratio vs. CB, Remainder (DAT sites; [3]): 1.95
ratio vs. CB, Stratum N (DAT sites; [3]): 11.3
ratio vs. CB, Striatum L (DAT sites; [3]): 5.90
% StrL/StrN (DAT sites; [4]): 88.7%
Regional brain distribution Cerebellum (CB) (DAT sites; [4]): 0.76 % dose/g
Regional brain distribution Cortex (DAT sites; [4]): 0.87 % dose/g
Regional brain distribution Hippocampus (DAT sites; [4]): 0.62 % dose/g
Regional brain distribution Hypothalamus (DAT sites; [4]): 0.99 % dose/g
Regional brain distribution Remainder (DAT sites; [4]): 1.16 % dose/g
ratio vs. CB, Cerebellum (CB) (DAT sites; [4]): 1.00
ratio vs. CB, Cortex (DAT sites; [4]): 1.15
ratio vs. CB, Hippocampus (DAT sites; [4]): 0.81
ratio vs. CB, Hypothalamus (DAT sites; [4]): 1.31
ratio vs. CB, Remainder (DAT sites; [4]): 1.53
ratio vs. CB, Stratum N (DAT sites; [4]): 10.2
ratio vs. CB, Striatum L (DAT sites; [4]): 9.07

COc1cc2c(cc1OCCCF)CCN1CC(CC(C)C)C(O)CC21 (racemic) [Compound 6b, (±)-2-hydroxy-3-isobutyl-9-(3-fluoropropoxy)-10-methoxy-1,2,3,4,6,7-hexahydro-11bH-benzo[a]quinolizine]
Ki (VMAT2; [3H](±)-TBZ): 0.19 ± 0.04 nM
